Reference: PMC3925085, “Subditine, a New Monoterpenoid Indole Alkaloid from Bark of Nauclea subdita (Korth.) Steud. Induces Apoptosis in Human Prostate Cancer Cells” (PLoS ONE, 2014)

Assays:
[1] = system: PC-3 human prostate cancer cells; assay: MTT cell proliferation assay, PC-3; assay type: cell-based
Experimental: Human prostate normal cell line (RWPE-1) and human prostate cancer cell lines; LNCaP and PC-3, were purchased from the American Type Culture Collection (ATCC, Manassas, Virginia, USA). LNCaP and PC-3 cells were grown in Roswell Park Memorial Institute medium (RPMI) supplemented with 10% heat-inactivated fetal bovine serum (FBS, Sigma-Aldrich, St. Louis, MO), 1% penicillin and streptomycin. RWPE-1 cells were maintained in Keratinocyte Serum Free Medium (K-SFM, ATCC) supplemented with bovine pituitary extract (BPE) and human recombinant epidermal growth factor (EGF). Mediums were supplemented with 10% heat-inactivated fetal calf serum (Sigma.), 100 U/ml penicillin and […] streptomycin (Flowlab, Sydney, Australia). All cells were maintained in a humidified atmosphere of 5% CO2 in air at 37°C incubator.
The anti-proliferative activity was evaluated by performing MTT assays as previously described with minor modifications. Briefly, cells were seeded 24 hours prior to treatment in a 96-well plate at 5×10^4 cells/well in order to obtain 70% to 80% confluent cultures. The compounds were dissolved in DMSO (Sigma Chemical Co., St. Louis, Missouri, USA) followed by a 2×serial dilution for 10 points ranged from 0.825 µM to 100 µM. The 96-well plate was incubated for 24 hours at 37°C in a humidified atmosphere with 5% CO2. At the end of incubation, 50 µl of MTT solution (2 mg/ml; Sigma) was added to each well. The plate was then incubated for 4 hours. All medium was removed and the purple formazan crystal formed at the bottom of the wells was dissolved with 200 µl DMSO for 20 minutes. The absorbance at 570 nm was read on a spectrophotometric plate reader (Hidex). The proportion of surviving cells was calculated as: […]
Dose-response curves were constructed to obtain the IC50 values. Experimental data were derived from 3 independent experiments. The selectivity index was obtained by mean IC50 RWPE-1/mean IC50 of LNCaP or PC-3.

PC-3 cells = assay: Cellomics multiparameter cytotoxicity assay, PC-3; assay type: cell-based, human
Experimental: Cytotoxicity 3 kit (Thermo Scientific) was used as described previously. Briefly, 24 hours after subditine (1) treatment, MMP dye and the cell permeability dye were added to live cells and incubated for 30 minutes at 37°C. Cells were fixed, permeabilized, blocked with 1x blocking buffer before probing with primary cytochrome c and secondary DyLight 649 conjugated goat anti-mouse IgG antibodies for 1 hour each. Hoechst 33342 was added into the staining solution. Plates were then analyzed using the ArrayScan high content screening (HCS) system (Cellomics, PA, USA). Data were captured, extracted and analyzed with ArrayScan II Data Acquisition and Data Viewer version 3.0.

LNCaP cells = assay: Hoechst 33342 / phalloidin staining, LNCaP; assay type: cell-based, human; details: 24 hours
Experimental: Cytoskeletal and nuclear morphological changes of LNCaP and PC-3 cells were examined by phalloidin (detects F-actin) and Hoechst 33342 staining. […] At concentration 12.5 µM and 25 µM, nuclear condensation and fragmentation were detected at 24 hours after subditine (1) treatment (Figure 4).
Figure 3 Subditine (1) induced cytoskeletal rearrangement at the peripheral. LNCaP and PC-3 cells were treated with subditine (1) at various concentrations for 24 hours. Cells were fixed and stained with Hoechst (blue) and phalloidin (red) dye which stained nucleus and polymerized actin (F-actin), respectively. Bar chart showing average fluorescent intensity of phalloidin (mean ± S.D.; *p<0.05).
Figure 4 Subditine (1) treatment leads to nuclear DNA fragmentation. LNCaP and PC-3 cells were treated with subditine (1) (12.5 µM and 25 µM) for 24 h. Cells were then fixed and stained with Hoescht 33342 (blue). Red circles indicate DNA shrinkage or fragmentation. Images were captured using Cellomic arrayscan system.

[2] = system: Bcl-xL expression in PC-3 cells; assay: Western blotting, Bcl-xL in PC-3; assay type: cell-based, human; details: 24 h
Experimental: (§1) To determine protein expression, 1×10^6 cells/mL were seeded and treated with subditine (1) or paclitaxel for 24 h. Whole cell extracts were prepared as previously described. Briefly, cells were collected, lysed and resolved on 10% SDS-polyacrylamide gels. After electrophoresis, the proteins were transferred to PVDF membranes (Millipore), blocked with 5% nonfat dry milk in PBS-T (0.05% Tween 20) for 1 hour at room temperature. Membranes were probed with primary rabbit anti-Bcl-2, Bcl-xL or p53 antibodies followed by horseradish peroxidase (HRP)-conjugated secondary anti-rabbit antibody (Cell Signaling Technology Inc., CA, USA). Membranes were stripped and reprobed with mouse anti-β-actin antibody as loading control (Santa Cruz Biotechnology Inc.). Protein-antibody complexes were detected with Amersham ECL prime Western blotting detection reagent (GE Healthcare, USA).

[3] = system: p53 expression in LNCaP cells; assay: Western blotting, p53 in LNCaP; assay type: cell-based, human; details: LNCaP (p53-wild-type), 24 h
Experimental: as §1

[4] = PC-3, 24 h, compared to control

Question: What does the source list for `Cc1ncc2c(=O)n3c(cc2c1C=O)-c1[nH]c2ccccc2c1CC3` [Subditine, subditine]?
Answer: IC50 ([1]; Homo sapiens, MTT, 24 hours, PC-3, mean ± S.D.): 14 ± 0.32 µM; folds more potent against PC-3 than normal prostate cells RWPE-1 ([1]; PC-3 vs RWPE-1): 2.2 folds; selectivity index (SI) PC-3 ([1]; mean IC50 RWPE-1/mean IC50 of PC-3): 2.18; cytochrome c release (cytosolic staining) (PC-3 cells; [4]): increased fluorescent-staining in the cytosol; membrane permeability (PC-3 cells; [4]): higher membrane permeability; mitochondrial membrane potential (MMP) fluorescence intensity (PC-3 cells; PC-3, 24 hours): dose-dependent reduction; nuclear intensity (apoptotic chromatin changes) (LNCaP cells; 12.5 µM and 25 µM, P<0.05): significantly increased; phalloidin (F-actin) intensity (LNCaP cells; various concentrations): Dose-dependent increased; Bcl-xL protein expression ([2]; PC-3, 12.5 µM, compared to control): no significant change; Bcl-xL protein expression ([2]; PC-3, 25 and 50 µM): drastically down-regulated; p53 expression [3]: up-regulate
